In brackets after ≈: the same amount, converted by molar mass.
Legend:
[1] = tested on: Oncorhynchus mykiss; conditions: acute; duration: 96 hours; mortality
[2] = tested on: Rattus norvegicus; conditions: for LD50: acute, mortality
[3] = tested on: Tagia sp.; conditions: for NOEC: chronic/long-term, reproduction; for LC50: acute, mortality
[4] = tested on: Apis mellifera; conditions: acute, mortality
[5] = tested on: Colinus virginianus
[6] = tested on: Daphnia magna; conditions: chronic/long-term; duration: 21 days; reproduction
[7] = tested on: Folsomia candida; conditions: chronic/long-term; reproduction
[8] = tested on: Lepomis macrochirus; conditions: chronic/long-term; other
[9] = tested on: Oryctolagus sp.; conditions: chronic; other
[10] = tested on: Aphidius rhopalosiphi; assay: LR50; higher = less toxic; conditions: not reported; mortality
[11] = short-term, duration: 28 days, M

Row | SMILES | LC50 [1] [µg/mL] | NOAEL [2, 11] [mg/kg-day] | NOEC [3] [mg/kg] | LC50 [3] [mg/kg] | other results
1 | O=C(O)c1cc(-n2nc(C(=O)O)n(C(F)F)c2=O)c(F)cc1Cl [F8426-dicarboxylic acid] | > 100 | 12.1 | 0.152 |  | 
2 | Cc1nn(-c2cc(C(=O)O)c(Cl)cc2F)c(=O)n1C(F)F | > 92.5 | 5.4 |  | > 1000 | 
3 | O=C(O)c1cc(-n2nc(CO)n(C(F)F)c2=O)c(F)cc1Cl | > 100 | 10.1 | 0.056 |  | 
4 | Cc1nn(-c2cc(CC(Cl)C(=O)O)c(Cl)cc2F)c(=O)n1C(F)F (configuration not stated) [Carfentrazone] | > 99.2 |  |  | > 1000 | 
5 | Cc1nn(-c2cc(CCC(=O)O)c(Cl)cc2F)c(=O)n1C(F)F |  |  |  | > 1000 | NOAEL ([2]; short-term, M): 1.4 mg/kg-day
6 | O=C(O)c1cc(-n2ncn(C(F)F)c2=O)c(F)cc1Cl [3-Desmethyl-F8426-benzoic acid] |  | 5.4 |  |  | 
7 | Cc1n[nH]c(=O)n1C(F)F | > 100 |  |  | > 100 | NOAEL ([2]; subchronic, duration: 90 days, M): 0.666 mg/kg-day
8 | O=C(O)CCc1cc(-n2ncn(C(F)F)c2=O)c(F)cc1Cl [3-Desmethyl-F8426-propionic acid] |  |  |  |  | NOAEL ([2]; short-term, M): 1.4 mg/kg-day
9 | Cc1nn(-c2cc(CC(C(=O)O)S(=O)(=O)O)c(Cl)cc2F)c(=O)n1C(F)F (stereo not drawn) [F8426-alpha-Sulfodeschloropropionic acid] | > 100 | 0.359 |  | > 100 | 
10 | CCOC(=O)C(Cl)Cc1cc(-n2nc(C)n(C(F)F)c2=O)c(F)cc1Cl (configuration not stated) [Carfentrazone-ethyl] | 1.6 (≈ 3.88 µM) |  | 8 | > 410 | LD50 ([4]; dermal): > 81 µg/piece; LD50 ([4]; oral, unspecified): > 81 µg/piece; LD50 ([5]; acute, oral, mortality): > 2250 mg/kg-day; NOEC ([5]; chronic): 94 mg/kg-day; NOEC [6]: 0.22 mg/L; NOEC [7]: 0.975 mg/kg; NOEC [8]: 0.0187 mg/L; NOAEL [9]: 40 mg/kg-day; LD50 ([2]; F): > 5140 mg/kg-day; LD50 ([2]; oral, M): > 5000 mg/kg; NOAEL ([2]; subchronic, duration: 90 days, oral, hematological): 58 mg/kg-day; LR50 [10]: 23.5 g/ha
11 | Cc1nn(-c2cc(C=CC(=O)O)c(Cl)cc2F)c(=O)n1C(F)F |  | 1 |  | > 500 | 
12 | COc1cc(-n2nc(C)n(C(F)F)c2=O)c(F)cc1Cl | > 20.9 | 8.5 | 0.256 |  | 
13 | O=C(O)CCc1cc(-n2nc(CO)n(C(F)F)c2=O)c(F)cc1Cl [3-Hydroxymethyl-F8426-propionic acid] |  | 1.4 |  |  | 
